# Laboratory results from PubChem BioAssay AID1996.
# Details: buffer; pH 7.4; 200.0 µM
row,Compound,solubility kinetic [µg/mL]
1,CCCCn1c(SCC(=O)Nc2cc(C)on2)nnc1-c1ccncc1,> 55.9
2,c1ccc(-c2nc(NCc3cccs3)c3ccccc3n2)cc1,0.7
3,O=C(/C=C/c1cccs1)Nc1nccs1,0.7
4,O=C(CCc1ccccc1)NCCc1cccs1,> 38.9
5,Cc1cccc(C(=O)NCC(=O)N(C)Cc2nc3ccccc3c(=O)[nH]2)c1,> 54.7
6,CN(C(=O)C1CCC1C(=O)O)c1nc(-c2ccc(Cl)s2)cs1 (stereo not given),42.6
7,N#C/C(=C(/O)c1cccc(F)c1)c1nc2ccccc2s1,17.8
8,COc1ccc(NC(=O)c2cc(-c3ccc(C)cc3)on2)cc1OC,< 0.4
9,COc1ccc(C(=O)N2CCC3(CC2)NCCc2[nH]cnc23)cc1,> 49
10,O=C(Nc1cccc(NC(=O)c2cccnc2)c1)c1ccccc1,21.9
11,CCOc1ccccc1/C=C(\C#N)C(=O)NC1CC1,31.3
12,CCCC1/C(=N/O)CC(c2ccccc2)NC1c1ccccc1 (stereo not given),< 0.3
13,COc1ccc(Nc2ncnc3sc(-c4ccccc4)cc23)c(OC)c1,0.6
14,O=C(COc1ccc(C2SCCS2)cc1)Nc1ccc(Cl)cc1,< 0.8
15,O=C(/C=C/c1ccc([N+](=O)[O-])cc1)OCC(=O)N1CCOCC1,10.1
16,Cn1ccnc1SCC(=O)Nc1nc2c(F)c(F)c(F)cc2s1,0.6
17,CC1CCN(C(=S)NC(=O)c2ccc(F)cc2)CC1,> 42.1
18,CCc1ccc(N(C(C)=O)c2nc(CCl)cs2)cc1,> 44.2
19,O=C(CC12CC3CC(CC(C3)C1)C2)Nc1c(F)cccc1F,< 0.7
20,CCOC(=O)c1ccc(NC(=O)Cc2cccs2)cc1,> 43.4
21,Cc1ccc(S(=O)(=O)N2CCCCCC2)cc1C(=O)NCc1ccccn1,55.7
22,CCc1cc(Cl)c(OC)c(C(=O)NC[C@@H]2CCCN2CC)c1O.Cl,> 56.6
23,Cc1ccc([N+](=O)[O-])c(OCCN2C(=O)NC(C)(C)C2=O)c1,> 46.1
24,O=C(O)CCc1ccc(-c2ccccc2)n1-c1ccc(C(=O)O)cc1,47

row,Compound,solubility kinetic [µg/mL]
1,CC(Cl)C(=O)c1ccc2c(c1)CCN2C(=O)C1CC1 (stereo not given),9.6
2,Cc1ccccc1C(=O)Nc1ccc2nc3n(c(=O)c2c1)CCCC3,37.5
3,O=c1[nH]c(COc2ccccc2)nc2ccccc12,4.1
4,Cc1cc(NC(=O)COC(=O)/C=C/c2ccc(C)o2)no1,1.8
5,O=C(c1ccccc1)N1CCCC(C(=O)N2CCCCC2)C1 (stereo not given),> 45.1
6,COc1ccc(CNc2ccc3c(c2)ncn3C)cc1OC,29.7
7,Cc1ccc(C2=NN(CC(=O)NCCC(C)C)C(=O)CC2)cc1,> 47.3
8,O=C(NC(=S)Nc1ccc(Cl)cc1)c1cncc(Br)c1,3.4
9,C/C(=N\NC=O)c1ccncc1,> 24.5
10,COc1ccc(S(=O)(=O)N2CC(=O)Nc3ccccc32)cc1F,> 50.5
11,CC(C)[C@H](NS(=O)(=O)c1ccccc1)C(=O)OCC(=O)Nc1cccc(S(N)(=O)=O)c1,61.6
12,COc1ccc(CCC(=O)NCC2CCCCC2)cc1OC,> 45.8
13,O=C(O)c1ccc(NS(=O)(=O)c2cc(Cl)sc2Cl)cc1,> 52.8
14,COC(=O)c1ccc(/C=C(\C#N)c2ccccn2)cc1,1.8
15,COc1ccc(-c2nc3ncccc3o2)cc1NC(=O)c1ccco1,2.5
16,COc1ccc(-c2noc(CCC(=O)NCc3ccco3)n2)cc1,39.7
17,Cc1ccccc1CNC(=O)c1ccc2ccccc2n1,9.2
18,C/C(=C\c1ccccc1)C(=O)Nc1ccc(Cl)cn1,7.2
19,Cc1cn2c(nc1=O)OC1CC2OC1CO (stereo not given),> 33.6
20,Cc1ccc(NC(=O)c2c(C)noc2C)cc1S(=O)(=O)N1CCOCC1,> 56.9
21,CC1CCC(NC(=O)C(Cc2ccccc2)n2cccc2)CC1 (stereo not given),19.2
22,O=C(Cc1ccsc1)Nc1ccc2c(c1)OCO2,> 39.2
23,Cc1ccc(SCCC(=O)Nc2cc(C)on2)cc1,1.3
24,O=[N+]([O-])c1ccc(N2CCCC2)nc1N1CCCC1,21.4

row,Compound,solubility kinetic [µg/mL]
1,C/C(Nc1ccccc1C(F)(F)F)=C1/CCOC1=O,18.7
2,COc1ccc(NS(=O)(=O)c2cc(NC(=O)c3ccccc3)ccc2N2CCOCC2)cc1,13.1
3,Cc1ccc(S(=O)(=O)c2c(C)cc(C)nc2N2CCCC2)cc1,1.2
4,O=C(OCC(=O)N1CCCC1)c1cc(=O)c2ccccc2o1,> 45.2
5,CC(=O)Nc1nc(-c2ccc3c(c2)CC(C)N3C(=O)C2CC2)c(C)s1 (stereo not given),35
6,COc1cccc(NC(=O)CN(C)CC(=O)NCC(=O)Nc2ccc(F)cc2)c1,> 60.4
7,Cc1ccc2cc(N)ccc2n1,> 23.7
8,CC(NC(=O)COC(=O)/C=C/c1cccc(F)c1)c1ccccc1 (stereo not given),6.1
9,Clc1ccccc1-c1csc(Nc2cccnc2)n1,0.3
10,O=C(O)CCNc1ccc(Cl)cc1,> 29.9
11,COc1cc2nc(NC(=O)c3ccc(Cl)cc3)sc(=O)c2cc1OC,3.7
12,Oc1cc2c(cc1CN1CCN(c3ccccc3)CC1)OCO2,17.6
13,CN(C)CCn1c(N)nc2ccccc21,> 30.6
14,COc1ccc2c(c1)CCC/C2=N\OC(=O)c1ccccc1F,< 0.7
15,Cc1ccc(S(=O)(=O)N2CCC(C(=O)NCCN3CCOCC3)CC2)cc1C,58.4
16,O=C(NC1CCN(C(=S)Nc2ccccc2)CC1)C1CCCCC1,2.1
17,Cc1ccccc1-n1c2nc(=O)n(C)c(=O)c-2cc2ccccc21,> 47.6
18,CC1CCCC(NC(=O)Cn2c(Cl)nc3c2c(=O)n(C)c(=O)n3C)C1C (stereo not given),> 57.3
19,OCCN(Cc1ccccc1)Cc1nc(CC2CC2)no1,> 43.1
20,Cc1ccccc1NC(=O)C1C2CCCCC21 (stereo not given),3.4
21,O=C(Nc1cccc(S(=O)(=O)N2CCOCC2)c1)c1ccc(Cl)nc1,> 57.3
22,CSCCC(NC(=O)COc1ccccc1)C(=O)N1CCCC(C)C1 (stereo not given),> 54.7
23,CN1CCN(CC(=O)Nc2ccccc2Oc2ccccc2)CC1,> 48.8
24,COc1ccc(/C=C/C(=O)N2CCNC(=O)C2)c(OC)c1,41.3

row,Compound,solubility kinetic [µg/mL]
1,CNc1ccc(OC)cc1-n1cnc(-c2ccc([N+](=O)[O-])cc2)c1,0.6
2,C=CCNC(=O)C1CCC(C(=O)NCC=C)CC1 (stereo not given),> 37.6
3,Cc1noc(C)c1S(=O)(=O)Nc1ccccc1Oc1ccccc1,37.5
4,CC(=O)N1C(C(=O)O)Cc2c([nH]c3ccccc23)C1C (stereo not given),> 40.8
5,O=C(Nc1ccncc1)Nc1cccc(F)c1,> 34.7
6,Cl.O=C(CN1CCCC1)Nc1ccc(Br)cc1,> 47.9
7,COc1cc(OC)c(C2CC(=O)N3CN(C)CSC3=C2C#N)cc1OC (stereo not given),43.3
8,Oc1ccc(-c2nc3ccccc3s2)cc1,6.6
9,Cc1ccc(/C=N/NC(=O)c2cccnc2)o1,> 34.4
10,CCOc1ccc(OCCn2c(=S)[nH]c3c(N)ncnc32)cc1,20.1
11,Cc1ccc(NC2=CC(=O)CC(C)(C)C2)cc1F,31.5
12,NC(=O)C1(c2ccccc2)CCC(=O)N1c1ccccc1 (stereo not given),> 42
13,CC(C)(C)N(Cc1ccccc1)C(=O)CN1C(=O)c2ccccc2S1(=O)=O,15.7
14,CN1CCN(c2nc3ccccn3c(=O)c2C=C(C#N)C#N)CC1,48
15,Cc1ccc(S(=O)(=O)N2CCN(Cc3cccnc3)CC2)cc1,> 49.7
16,O=C(NCCNC(=O)c1ccccn1)c1ccc(F)cc1,> 43.1
17,Cc1cc(Nc2ccccc2)n(-c2ccc(C(=O)O)cc2)n1,> 44
18,CCCN1CCC(N(CCc2ccccc2)Cc2ccccc2)CC1,32.5
19,Cn1cccc1C(=O)N1CCc2ccccc2C1,> 36
20,COc1ccccc1-n1ccnc1SCC(=O)NCc1ccco1,48.4
21,CC(=O)N(C)c1ccc(N=C2C(=O)Nc3ccccc32)cc1,> 44
22,CCOc1ncccc1C(=O)Nc1nnc(C2CC2)s1,> 43.6
23,Cc1cc(-c2nc(-c3ccc(C(C)(C)C)cc3)no2)no1,< 0.2
24,Cc1cccc(CC2CC(=O)N(c3nc4ccccc4s3)C2=O)c1 (stereo not given),16.5

row,Compound,solubility kinetic [µg/mL]
1,Cc1cc(C)nc(SC2CC(=O)N(c3ccc(C)c(C)c3)C2=O)n1 (stereo not given),19.7
2,O=[N+]([O-])c1ccc2c(c1)nc1n2CCSC1,> 35.3
3,CC(C(=O)O)N1CCCCC1.Cl (stereo not given),24.3
4,CC(=O)c1ccc(OCCCC(=O)Nc2cccc(S(=O)(=O)N3CCCCCC3)c2)cc1,10.4
5,CC(=O)Nc1cccc(OCCCNC(=O)c2ccc(F)cc2)c1,38.9
6,CC1(C)CC(=O)C(CC(=O)NC2CCCc3ccccc32)C(=O)C1 (stereo not given),> 49.1
7,O=C(NC1CCCC1)C(c1cc2c(cc1[N+](=O)[O-])OCO2)N1CCCC1 (stereo not given),40.6
8,O=C(O)c1ccccc1NCc1cccs1,23.8
9,CN(CC(=O)Nc1ccccc1)CC(=O)Nc1ccccc1Cl,> 49.8
10,O=[N+]([O-])c1ccc(Cl)c(S(=O)(=O)NCCc2ccccn2)c1,> 51.3
11,O=C(CSc1ccc([N+](=O)[O-])cc1)Nc1ccccc1N1CCOCC1,4.9
12,CCN1CCN(Cc2c3ccccc3cc3ccccc23)CC1,27.9
13,O=C(COC(=O)COc1ccccc1)NC1CCCC1,> 41.6
14,O=C1CSC(c2cccc([N+](=O)[O-])c2)N1c1ccccc1 (stereo not given),41.4
15,Cc1nc2sc(C(N)=O)c(N)c2c2c1CCCC2,9.3
16,C=CC(C)C(C(=O)c1ccccc1)N(C)C (stereo not given),12
17,COc1ccccc1C(=O)NC(C)c1cccc2ccccc12 (stereo not given),18.7
18,Cc1ccc(C)c(CSC2=NCCN2C(=O)c2cccs2)c1,1
19,CN(C)NC(=O)c1ccc([N+](=O)[O-])s1,> 32.3
20,O=C(COC(=O)C1CC1)NCc1ccccc1,> 35
21,CCOC(=O)C1CCN(S(=O)(=O)c2cn(C)cn2)CC1,> 45.2
22,O=C(O)c1cc(S(=O)(=O)N2CCCCC2)ccc1N1CCOCC1,> 53.2
23,O=C(NC1CCCC1)C1CCN(C(=O)c2ccc(Cl)cc2)CC1,> 50.2
24,c1ccc(N2CCN(Cc3cnc(N4CCOCC4)s3)CC2)cc1,> 51.7
